Entries after “also recorded” stand apart in the source; their conditions may differ. Where two headings read alike, the source gives them in different places.
How the values were obtained:
[1] = system: hrtAB promoter (HssRS activation; CgoX activation); assay: XylE colorimetric reporter assay (phrt.xylE), activation of HssRS / hrtAB expression; assay type: cell-based, Staphylococcus aureus strain Newman; details: for XylE activity in comparison to '8882 at 10 μM: six-hour exposure (FIG. 2A); for Specifc Activity (nMol/min*mg), data collected at 10 uM: footnote a: data collected at 10 uM
Procedure: (§1) To maximize the production of coproporphyrin III and thereby increase blue-light mediated killing of S. aureus, synthesized analogs of VU0038882 were tested. To determine the relative efficacy of each analog, a Newman strain of S. aureus, transformed with the phrt.xylE (11) reporter vector was used. This reporter allows for colorimetric assessment of intracellular heme production. To perform the assay, each individual analog was added to 3 mL of TSB+10 μg/mL chloramphenicol to reach a concentration of 30 μM, and then 700 μL of this newly made 30 μM solution was added to 1.3 mL of remaining TSB+10 μg/mL chloramphenicol media to create the 10 μM concentration. Either 10 μM or 30 μM concentrations of compounds in medium were then aliquoted into three 0.5 mL replicate tubes. Three separate 16- to 18-hour overnight subcultures from isolated colonies were back-diluted 1:100 into the tubes creating three biological replicates and were subcultured for 6 hours at 37° C. and 180 rpm. After incubation, the cells were pelleted at 16,400 g for 5 minutes and the supernatant aspirated before washing with 0.5 mL of 20 mM potassium phosphate wash buffer. After pelleting the cells again at 16,400 g for 5 minutes the wash buffer was aspirated, and the pellets were stored at −80° C. until further use.
When the cells were ready to be lysed and data collected, samples were removed from the −80° C. freezer, allowed to thaw, and resuspended in 150 μL of lysis buffer (100 mM potassium phosphate pH=8.0, 10% v/v acetone, 20 μg/mL lysostaphin) before incubation in a 37° C. bead bath for 20 minutes and then cooled for 5 minutes on ice. The samples were then centrifuged at 16,400 g and 4° C. for 30 minutes to separate the pellet from the lysate, which was then placed into a 96-well microtiter plate and kept on ice. The lysate from each sample was pipetted into 20 μL aliquots on a round-bottom or flat-bottom 96-well plate on ice. The round bottom plate was labeled for bicinchoninic acid assay (BCA) protein content analysis, and 10 μL of BCA standards was added to extra wells on the plate. Protein quantification was performed using a Pierce BCA Protein Assay Kit as per the manufacturer's instructions. While the BCA plate was in the incubator, the flat-bottom plate was prepared by thawing 1 M catechol on ice and making 100 mM potassium phosphate (pH=8.0) assay buffer. After preparing a kinetic read at 375 nm for 10 minutes with a minimal interval between reads, the catechol was diluted 1:1,000 into the assay buffer and quickly dispensed into a sterile basin, then 200 μL of the solution was pipetted into each well using a multichannel pipette. All data were exported into Excel software (Microsoft) and analyzed for specific activity of each compound and activity relative to VU0038882 controls.
After 219 analogs had been screened, the compounds with the best percent VU0038882 activity were tested again following the same protocol, but with twelve replicates per concentration with data expressed as averages ±the standard deviation (SD). Additionally, the top-performing compounds were tested using the XylE protocol with a concentration gradient to determine their half maximal effective concentration (EC50) values.
Photosensitizer-conjugated antibodies expose bacteria to reactive oxygen species (ROS) externally, but this treatment can be paired with small molecule treatment to generate ROS internally via heme biosynthesis pathway intermediates. To discover new compounds capable of activating CgoX and/or displaying less toxicity to eukaryotic cells, a medicinal chemistry campaign was initatied based on systematic alternation of the '8882 structure. Each new analog was tested for the ability to activate HssRS using the previously described XylE colorimetric assay that employs a reporter construct in which the hrtAB promoter is fused to a xylE reporter gene. […]

S. aureus = assay: Toxicity of analogs to bacteria in the XylE cultures; assay type: cell-based, Staphylococcus aureus; details: target dose of 30 μM
Procedure: as §1
The most consistent activity with non-furan-containing compounds was found with thiophene replacements.

[2] = system: S. aureus strain Newman wild-type (iron-starved); assay: In vitro antimicrobial photodynamic therapy light killing assay; assay type: cell-based, Staphylococcus aureus; details: for Growth inhibition / reduction of CFUs/mL by small molecule plus IR700DX-conjugated anti-IsdA and anti-IsdB mAb mixture: combination with mAb mixture, 63 J/cm^2 690 nm and 50 J/cm^2 395 nm light (FIG. 3A)
Procedure: Iron-chelated bacterial cultures of the indicated strains were prepared. Antibodies of interest were added to 5 mL of iron-chelated TSB at a concentration of 2.5 ug/mL for subculture. These conditions were then separated into four-1 mL aliquots, which was comprised of replicates for both the experimental and control strains. The iron-depleted bacterial strains Newman wildtype and Newman ΔisdABΔspa (40) were then normalized to an OD600 of 1.0 and back diluted 1:100 into each condition from the overnight cultures. These subcultures were then incubated at 37° C. and 180 rpm for 30 minutes, and the bacteria were pelleted via centrifugation for 5 minutes at 16,400 g and 4° C. The pellet was washed twice in 1 mL of cold PBS before being finally resuspended in 1 mL of cold PBS.
During the subculture incubation, a measurement was taken of the power of each light to calculate the time needed to achieve a light dose of 63 J/cm^2 for the 690 nm NIR light (M680L4; Thorlabs) and 50 J/cm^2 for the 395 nm blue-LED (M395L4; Thorlabs) mounted 5 cm above the measurement probe. This measurement was taken using a photodiode and power meter (919P-003-10, 843-R; Newport) with a cutout 3×3 portion of a black 384-well microtiter plate positioned centrally over the measurement probe. The outer wells were covered with aluminum foil to ensure that the measurement taken by the probe was strictly limited to the light that entered the 0.1225 cm^2 area of the well. This approach allowed for the irradiance of the light to be calculated according to (readout (mW)/0.1225 cm^2). This value was then divided into the total light dose for each light and divided by 60 to determine the light dose in minutes. The outputs of the 690 nm and 395 nm LEDs were spatially combined using a long-pass dichroic filter (FF470-Dio; Semrock Inc.) for all experimental conditions where light was present.
The spatial intensity profile of the light output is approximately Gaussian in shape in both directions, so 25 μL of each sample was aliquoted into a 3×3 square on a black 384-well microtiter plate with the center well remaining empty, since it would receive a stronger dose than the surrounding wells. The samples were organized such that the conditions alternated wild-type and knockout in a clockwise fashion, beginning with the lower left corner well. In addition, the center well was centered under the light to equate the radial diminishment of light dose amongst the samples.
To ensure the compounds' efficacy in the full therapeutic regimen and reduce potential unknown variables, each of the compounds was tested with 395 nm or 690 nm wavelengths and with Newman WT or Newman ΔisdAB Δspa. […]

[3] = system: S. aureus USA300 luxBADCE; assay: In vivo murine superficial skin (ear) infection model with PDT, bioluminescence imaging; parameters: species or system BALB/cJ mice; details: for Bacterial growth / luminescence in infected mouse ear compared to untreated animals: '8882 plus conjugated antibodies (i.p. and topical) plus 690 nm and 395 nm light, two-day regimen
Procedure: All mice were maintained in compliance with Vanderbilt's Institutional Animal Care and Use Committee regulations (protocol M1800026). To create a superficial skin wound a similar model of infection was used, as previously described (44), with modifications to relocate the area of infection to the inner epithelial layer of each ear. Eight- to 10-week-old female BALB/cJ mice were used for the S. aureus infections. Twenty-four hours prior to infection the mice were injected intraperitoneally with 20 μg/mL of both STAU-149 (anti-IsdA) and STAU-281 (anti-IsdB) in PBS. Overnight cultures of S. aureus USA300 with a chromosomally-integrated luxBADCE cassette (45) were subcultured 1:50 into TSB containing 1 mM 2,2-dipyridyl. Cultures were grown for 3.5 h to reach exponential phase of growth. Cell pellets were washed twice with ice-cold PBS with the original culture volume, centrifuged, and resuspended in 250 μL of ice-cold PBS. Approximately 5×10^7 log-phase CFUs were inoculated in 5 μL of PBS directly onto the surface of the wound present on each ear, and each mouse was again injected intraperitoneally with antibodies. Mice were placed into new sterile cages in groups of three in accordance with their experimental condition. Four hours post-infection, the mice were visualized using the IVIS spectrum (Perkin Elmer) in vivo bioluminescence imaging system, with data being collected with a 5-minute exposure time. Each mouse was then transferred to a nose cone under continuous isoflurane anesthesia and, 30 minutes prior to light exposure, the ears were exposed to 10 ∥L of the 450 ∥M '8882 and 20 μg/mL mAb cocktail in PBS containing 10% DMSO. Control mice were left untreated. The right ventrodorsal ear of each mouse was exposed to the 395-nm LED for 20.6-23.1 minutes delivering a total energy dose of 50 J/cm^2. […]
The left ventrodorsal ear of each mouse was not exposed to light during treatment. […] Luminescence was quantified for individual ears using ImageJ (FIJI) (46-48). […] Post-treatment images were again collected at 5-minute exposure times using the IVIS system and analyzed using ImageJ (FIJI). […]

[4] = Staphylococcus aureus, NEWMAN, read-out: logEC50 (converted)

Row | Molecule | XylE activity in comparison to '8882 at 10 μM [1] | logEC50 ([1]; XylE protocol with a concentration gradient, Newman phrt.xylE) | EC50 ([1]; XylE protocol with a concentration gradient, Newman phrt.xylE, read-out: EC50) | Specifc Activity (nMol/min*mg), data collected at 10 uM ([1]; 6 h subculture) | Toxicity to bacteria (S. aureus) (S. aureus) | Specifc Activity @ 30 μM ([1]; 30 μM compound, 6 h subculture, XylE activity normalized to protein) | EC50 ([1]; Staphylococcus aureus, NEWMAN) | EC50 [1, 4] | Decrease of S. aureus viability compared with untreated cells, combined treatment ([2]; '8882 plus IR700DX-conjugated IsdA and IsdB antibodies plus 690 nm and 395 nm light) | Efficacy against S. aureus in PDT, small molecule alone ([2]; alone, with light) | Growth inhibition / reduction of CFUs/mL by small molecule plus IR700DX-conjugated anti-IsdA and anti-IsdB mAb mixture [2] | Growth inhibition / reduction of CFUs/mL by small molecule plus IR700DX-conjugated anti-IsdA and anti-IsdB mAb mixture ([2]; listed as VU0038882) | Bacterial growth / luminescence in infected mouse ear compared to untreated animals [3] | Bacterial growth / luminescence in infected mouse ear compared to untreated animals ([3]; listed as VU00038882) | Bacterial burden in infected mouse ear, antibodies plus '8882 without light ([3]; no light exposure)
1 | 2-(5-(5-(Hydroxymethyl)thiophen-2-yl)-1H-pyrazol-3-yl)naphthalen-1-ol [′9952] | highest activity at 10 μM observed to date | −5.182 ± 0.065 | 6.58 µM | 18.10 ± 1.80^a nMol/min*mg | overtly toxic to bacteria; also recorded: exhibiting toxicity to S. aureus | – | – | – | – | – | – | – | – | – | –
2 | Oc1c(-c2cc(-c3ccco3)[nH]n2)ccc2ccccc12 [′8882, 2-(5-(Furan-2-yl)-1H-pyrazol-3-yl)naphthalen-1-ol] | – | – | – | – | – | 30.04 ± 10.24 nmol/min/mg | 10.5 µM | 10.5 µM | 10,000 fold | efficacious against S. aureus | significant growth inhibition of S. aureus | greater reduction of CFUs/mL in vitro than either condition alone | significantly less bacterial growth | significant reduction in bacterial luminescence | a reduction in bacterial burden but did not reach the same extent as the combinatorial treatment
3 | Oc1c(-c2cc(-c3ccoc3)[nH]n2)ccc2ccccc12 [′9133, 2-(5-(Furan-3-yl)-1H-pyrazol-3-yl)naphthalen-1-ol] | outperformed '8882 | – | – | 8.346 ± 1.304^a nMol/min*mg | overtly toxic to bacteria; also recorded: exhibiting toxicity to S. aureus | – | 8.17 µM | 8.17 µM | – | – | – | – | – | – | –
